From patent US20250120932A1, “PHARMACEUTICAL COMPOSITION” (NEUROPRO THERAPEUTICS, INC., priority 2021, published 2025)

Test: in vitro
Details: human, Caco-2, pH 7.4, % Solution Recovery
Experimental: Caco-2 cells purchased from ATCC were seeded onto […] (PET) in 96-well Corning Insert plates at 1×10^5 cells/cm^2, and refreshed medium every 4˜5 days until to the 21st to 28th day for confluent cell monolayer formation.
The transport buffer in the study was HBSS with 10.0 mM HEPES at pH 7.40±0.05. Test compound was tested at 2.00 μM bi-directionally in duplicate. Digoxin was tested at 10.0 μM bi-directionally in duplicate, while nadolol and metoprolol were tested at 2.00 μM in A to B direction in duplicate. Final DMSO concentration was adjusted to less than 1%. The plate was incubated for 2 hours in CO2 incubator at 37±1° C., with 5% CO2 at saturated humidity without shaking. And all samples after mixed with acetonitrile containing internal standard were centrifuged at 3200×g for 10 min. For nadolol and metoprolol, 200 μL supernatant solution was diluted with 600 μL ultra-pure water for LC-MS/MS analysis. For digoxin and test compounds, 200 μL supernatant solution was diluted with 200 μL ultra-pure water for LC-MS/MS analysis. Concentrations of test and control compounds in starting solution, donor solution, and receiver solution were quantified by LC-MS/MS methodologies, using peak area ratio of analyte/internal standard. After transport assay, lucifer yellow rejection assay was applied to determine the Caco-2 cell monolayer integrity.
The apparent permeability coefficient Papp (cm/s) was calculated using the equation: […]
Where dCp/dt is the cumulative concentration of compound in the receiver chamber as a function of time (μM/s); Vr is the solution volume in the receiver chamber (0.075 mL on the apical side, 0.25 mL on the basolateral side); A is the surface area for the transport, i.e. 0.0804 cm^2 for the area of the monolayer; Co is the initial concentration in the donor chamber (μM). The efflux ratio was calculated using the equation: […]
Percent recovery was calculated using the equation: […]
Where Vd is the volume in the donor chambers (0.075 mL on the apical side, 0.25 mL on the basolateral side); Ca and Cr are the final concentrations of transport compound in donor and receiver chambers, respectively.

- recovery at 2 h, 2 μM: < 50%
Compound: CCCCNc1cc(C(=O)N(Cc2ccccc2)Cc2ccccc2)cc(S(N)(=O)=O)c1Oc1ccccc1 [Bumetanide Dibenzylamide, N, N-dibenzyl 3-aminosulfonyl-5-butylamino-4-phenoxybenzamide]
